pIC50: −log10 of the molar value.
What was measured:
hIL-17 mRNA = test: Inhibition of hIL-17 mRNA transcription in OKT3-stimulated peripheral blood mononuclear cells; type: cell-based; settings: human PBMC, OKT3 stimulation 6 h, read-out: IL-17 Activity
Summary of the method: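 Human PBMCs in IL-2 (20 ng/ml) medium preincubated 1 h with compound or 0.1% DMSO, then OKT3-stimulated for 6 h at 37 °C. hIL-17 mRNA quantified by one-step TaqMan qRT-PCR, normalized to an internal control, as fold induction relative to control.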

[1] = system: c-myc in Human AML MV4-11 cells; test: Inhibition of cMYC expression (mRNA, real-time PCR) in MV4-11 cells; type: cell-based; settings: 3 h treatment, cMYC mRNA by real-time PCR
Summary of the method: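 MV4-11 cells in IMDM with 10% FBS were treated with increasing compound concentrations (DMSO 0.1%) for 3 h at 37 °C, in triplicate. Isolated mRNA was quantified by one-step TaqMan RT-qPCR, cMYC Ct normalized to cyclophilin, and fold expression given relative to DMSO control.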

MV4-11 cells = test: In vivo efficacy in athymic nude mouse acute myeloid leukemia xenograft model using MV4-11 cells; settings: athymic nude mouse AML xenograft (MV4-11), oral dosing
Procedure: MV4-11 cells (ATCC) were grown under standard cell culture conditions and (NCr) nu/nu fisol strain of female mice age 6-7 weeks were injected with 5×10^6 cells/animal in 100 μL PBS+100 μL Matrigel in the lower left abdominal flank. By approximately day 18-21 after MV4-11 cells injection, mice were randomized based on tumor volume (L×W×H)/2) of average ˜100-300 mm^3. Mice were dosed orally with compound at 5 to 120 mg/kg b.i.d and/or q.d. on a continuous dosing schedule and at 2.5 to 85 mg/kg q.d. on a 5 day on 2 day off, 100 mg/kg q.d. on a 4 day on and 3 day off, 135 mg/kg q.d. on a 3 day on and 4 day off, 180 mg/kg on a 2 day on and 5 day off and 240 mg/kg on a 1 day on and 6 days off dosing schedules in EA006 formulation at 10 mL/kg body weight dose volume. Tumor measurements were taken with electronic micro calipers and body weights measured on alternate days beginning from dosing period. The average tumor volumes, percent Tumor Growth Inhibition (TGI) and % change in body weights were compared relative to Vehicle control animals. The means, statistical analysis and the comparison between groups were calculated using Student's t-test in Excel.

Human AML MV-4-11 cells = test: Inhibition of cell proliferation in MV4-11 cells (CellTiter Aqueous One); type: cell-based; settings: MV4-11, 72 h
Summary of the method: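 MV4-11 cells, 5×10^4 per well in IMDM with 10% FBS, were exposed to increasing compound concentrations or 0.1% DMSO for 72 h at 37 °C in triplicate. Viability was read by MTS (CellTiter Aqueous One) absorbance at 490 nm after 3-4 h. IC50 was derived from background-corrected signal relative to DMSO.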

[2] = biological target: Brd4 bromodomain 1 (BRD4(1)) (Homo sapiens, UniProt O60885); test: Inhibition of tetra-acetylated histone H4 binding to Brd4 bromodomain 1, measured by FRET (HTRF); set-up: made in house; host or cells: E. coli BL21(DE3); settings: 2 h at room temperature
Summary of the method: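 Inhibition was read as a drop in 665 nm relative to 620 nm HTRF signal after 2 h at room temperature, with IC50 from dose-response curves in duplicate wells. Reactions held 200 nM E. coli-expressed His-tagged bromodomain and 25-50 nM biotinylated tetra-acetylated histone H4 peptide. Buffer was 30 mM HEPES pH 7.4 with KF, CHAPS, BSA and 0.2% DMSO.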

SMILES | pIC50 (hIL-17 mRNA) | pIC50 [1] | In vivo activity (MV4-11 cells) | pIC50 (Human AML MV-4-11 cells) | pIC50 [2]
Cc1nc2c(-c3c(C)nn(C)c3C)cc(-c3c(C)noc3C)cc2[nH]1 [Example Compound 49, 3,5-dimethyl-4-(2-methyl-4-(1,3,5-trimethyl-1H-pyrazol-4-yl)-1H-benzo[d]imidazol-6-yl)isoxazole] | ≥ 6.52 | ≥ 6.52 | Active | 5.52 to 6.52 | ≥ 6.52
Cc1nc2c(-c3cccnc3C)cc(-c3c(C)noc3C)cc2[nH]1 [Example Compound 41, 3,5-dimethyl-4-(2-methyl-4-(2-methylpyridin-3-yl)-1H-benzo[d]imidazol-6-yl)isoxazole] | 5.52 to 6.52 | 5.52 to 6.52 | Active | 5.52 to 6.52 | ≥ 6.52
Cc1nc2c(-c3c(C)noc3C)cc(-c3c(C)noc3C)cc2[nH]1 [Example Compound 6, 4,4′-(2-methyl-1H-benzo[d]imidazole-4,6-diyl)bis(3,5-dimethylisoxazole)] | ≥ 6.52 | 5.52 to 6.52 | Active | 5.52 to 6.52 | ≥ 6.52
Cc1noc(C)c1-c1cc(-c2c(C)noc2C)c2nc[nH]c2c1 [Example Compound 1, 4,4′-(1H-benzo[d]imidazole-4,6-diyl)bis(3,5-dimethylisoxazole)] | 5.52 to 6.52 | 5.52 to 6.52 | Active | 5.52 to 6.52 | ≥ 6.52

— patent US9999616B2 (ZENITH EPIGENETICS LTD., priority 2013, dated 2018)
